The results in this text go back to PMC3429785 (Bioconjugate chemistry, 2012).

Experiment [1] has as its system JRFL luciferase reporter pseudovirions (HOS-CD4-CCR5 target cells). The experiment in a line: Pseudovirion infectivity assay, JRFL. The settings on record: JRFL strain. In kind it is cell-based, HIV-1.
Experiment [2] deals with HXB2 luciferase reporter pseudovirions (HOS-CD4-CXCR4 target cells). The experiment in a line: Pseudovirion infectivity assay, HXB2. In kind it is cell-based, HIV-1. Particulars: HXB2 strain.

Consider “C34-PEG80-Chol: C-peptide (C34) cholesterol conjugate with PEG80 linker”, for which the “fold worse than the optimal PEG length” value in experiment [1] is 4 fold.

“C34-PEG2-Chol: C-peptide (C34) cholesterol conjugate with short PEG2 linker [reference compound]”: the “fold improved potency of cholesterol conjugate compared to C34” value in experiment [2] was ~ 40 fold.

As to “C34-PEG11-Chol: C-peptide (C34) cholesterol conjugate with PEG11 linker”, in experiment [2], the “additional fold improvement in potency over short PEG2 linker” value was found to be 2 fold.
